From patent EP0606044A1, “Lactones compounds useful as pharmaceuticals” (SANDOZ LTD., priority 1992, dated 1994)

Columns and labels:
[1] = Solubility (characteristics of the metabolite); type: physicochemical
Excerpt: Formula I', which is formula I in which R₄ and R₅ are methoxy, R₆ is OH, -a-b- is cis- -CH=CH-, c is C=O, -d-e- is -CHOH-CHOH-, -f-g- is trans- -CH=CH- and the asymmetric carbon atoms marked * all have the S-configuration [drawing 2] is the structure which has been assigned to the novel metabolite designated 87-250904-F1 and having the following characteristics: White needles (from methanol/water 1:1), m.p. […] HPLC : Column : LiChrospher 100 RP-8 (5µm) (LiChroCART 125-4, Merck) Mobile phase: acetonitrile/water/orthophosphoric acid 350:650:0.175 (by vol.) Flow rate: 1.0 ml/min Detection: UV 210 nm Retention time: 3.8 min.

THP-1 cells = assay: Cytokine release from THP-1 cells (γ-interferon/LPS stimulated; ELISA, RIA, LDH, DNA); type: cell-based; conditions: Homo sapiens, γ-interferon, LPS, 40 hours, read-out: IC₅₀ value in the THP-1 test (concentration of compound which inhibits to 50 % the release of IL-1β)
Experimental: 1. Cytokine Release from THP-1 Cells
The THP-1 cell line is generally available and is described by Tsuchiya et al, Int. J. Cancer 26 171-176 (1980). 900 µl THP-1 cells (0.5 x 10⁶ cells) together with 100 U γ-interferon/0.9 ml RPMI 1640 medium (containing 2 mM L-glutamine and 5 % heat-inactivated foetal calf serum) are pipetted into 24 well culture plates. 100 µl of the compound to be tested are then added. After 3 hours at 37°C in 5 % CO2/95 % air, 10 µl lipopolysaccharide 500 µg/ml is added and the incubation continued for a further 40 hours. Appropriate controls (with and without stimulus, solvent) are also included. The media are then removed and clarified by centrifugation at 1000 g for 10 min. 1.0 ml digitonin 0.01 % is added to the wells to lyse the cells which are loosened by scraping with a rubber policeman and left at 4°C for 10 min. […] IL-1β, IL-6 and TNF-α assays are determined using commercially available ELISA kits (Cistron), PGE2 is measured using a standard RIA and DNA fluorimetrically using DAPI (4',6-diamidino-2-phenylindole.2HCl) […]
For the above uses the required dosage will of course vary depending on the mode of administration, the particular condition to be treated and the effect desired. […] It has been determined that the compound of Formula I' has an IC₅₀ value in the THP-1 test (concentration of compound which inhibits to 50 % the release of IL-1β) of 0.06 µM.

COc1cc(O)c2c(c1OC)/C=C/C[C@H](O)[C@H](O)C(=O)/C=C\C[C@H](C)OC2=O [Formula I', [3S-(3R*, 5Z, 8R*, 9R*, 11E)]-3,4,9,10-tetrahydro-8,9,16-trihydroxy-13,14-dimethoxy-3-methyl-1H[2] benzoxacyclotetradecin-1,7[8H] dione]
Solubility in methanol, DMSO, chloroform ([1]; methanol, DMSO, chloroform): readily soluble
Solubility in water ([1]; water): Almost insoluble

COc1cc(O)c2c(c1OC)/C=C/C[C@H](O)[C@H](O)C(=O)/C=C\C[C@H](C)OC2=O [Formula I']
IC50 (THP-1 cells): 60 nM
